pIC50: −log10 of the molar value.
Biological target: T1, Neuromedin-K receptor (Homo sapiens, UniProt P29371)
T1 sequence (P29371 whole entry): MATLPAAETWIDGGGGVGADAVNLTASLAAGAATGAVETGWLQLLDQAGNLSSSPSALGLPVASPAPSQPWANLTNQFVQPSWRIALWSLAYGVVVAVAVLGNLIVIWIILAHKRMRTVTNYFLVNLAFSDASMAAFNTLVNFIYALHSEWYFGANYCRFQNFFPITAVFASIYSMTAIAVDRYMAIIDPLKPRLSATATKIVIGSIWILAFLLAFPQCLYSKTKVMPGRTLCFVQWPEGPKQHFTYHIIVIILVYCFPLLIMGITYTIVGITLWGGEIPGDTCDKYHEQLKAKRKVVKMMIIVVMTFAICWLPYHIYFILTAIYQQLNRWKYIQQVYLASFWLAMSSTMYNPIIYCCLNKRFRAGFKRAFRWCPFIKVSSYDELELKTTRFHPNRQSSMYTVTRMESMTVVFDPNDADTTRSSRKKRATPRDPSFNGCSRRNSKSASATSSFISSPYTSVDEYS
Test: Aequorin Assay with Human NK-3 Receptor
Description: The antagonist activity of compounds of the invention is measured following pre-incubation (3 minutes) of the compound with the cells, followed by addition of the reference agonist (NKA) at a final concentration equivalent to the EC80 (3 nM) and recording of emitted light (FDSS 6000 Hamamatsu) over the subsequent 90-second period. The intensity of the emitted light is integrated using the reader software.

Structure (SMILES): Cc1coc(-c2nnc3n2CCN[C@@H]3C)n1 [US10065961, Compound 27]
- pIC50: 7.29
